± gives the expanded uncertainty stated by the source.
Settings: 101.33 kPa, Liquid

Row | SMILES | mass density (283.15 K) [kg/m3] | speed of sound (283.15 K) [m/s] | viscosity (283.15 K) [mPa·s] | mass density (298.15 K) [kg/m3] | speed of sound (298.15 K) [m/s] | viscosity (298.15 K) [mPa·s] | mass density (313.15 K) [kg/m3] | speed of sound (313.15 K) [m/s] | viscosity (313.15 K) [mPa·s]
1 | CC1CCCO1 (stereo not drawn) [2-methyltetrahydrofuran] | 864.17 ± 0.55 | 1276.6 ± 1.6 | 0.5618 ± 0.015 | 849.04 ± 0.56 | 1202.2 ± 1.6 | 0.4776 ± 0.014 | 833.76 ± 0.57 | 1129.9 ± 1.6 | 0.4088 ± 0.012
2 | CCCCO [butan-1-ol] | 816.92 ± 0.59 | 1292.1 ± 1.7 | 3.869 ± 0.087 | 805.73 ± 0.6 | 1242.9 ± 1.6 | 2.561 ± 0.059 | 794.38 ± 0.6 | 1186.3 ± 1.6 | 1.757 ± 0.042
